Measured values taken from publication PMC9763021, “Comprehensive Assessment of Biomolecular Interactions of Morpholine-Based Mixed Ligand Cu(II) and Zn(II) Complexes of 2,2′-Bipyridine as Potential Anticancer and SARS-CoV-2 Agents: A Synergistic Experimental and Structure-Based Virtual Screening” (Bioinorganic Chemistry and Applications, 2022).

Columns and labels:
[1] = system: calf thymus deoxyribonucleic acid; assay: DNA binding by viscometric (hydrodynamic) technique
Procedure: The titrations were performed for all compounds including EB (control) at 20, 40, 60, 80, and 100 μM concentrations. In the Ostwald viscometer, these substances were also separately treated with the calf thymus deoxyribonucleic acid solution (100 μM).
Hydrodynamic findings can be utilized to assess the alteration of DNA length and afford details on the binding tendency between small molecules and biomolecules. As a result of their sensitivity to DNA contour length changes, which implies that the average distance between each monomer (cl = 0.338 nm/bp for B-form DNA), the DNA binding properties of all test compounds were further validated by this method. According to the Lerman concept, interactions between small molecules and deoxyribonucleic acid via covalent and noncovalent bindings are often possible. When a chemical substance interacts with the deoxyribonucleic acid double helix, the contour length of DNA increases via intercalation and leads to an increase in the absolute viscosity. Meanwhile, if DNA viscosity is not affected during interactions, which leads to the responsible for the major/minor groove binding due to H-bond/Van der Waals interactions, electrostatic, partial, or nonclassical interaction modes. Therefore, analyzing the binding modes provides additional support for the findings as well as a crucial aspect of the conventional intercalation concept. In this case, it was observed that the absolute viscosity increased consistently along with the concentration of each substance at the fixed DNA concentration. The DNA must extend to facilitate the binding of ligands, which causes a considerable rise in DNA viscosity while small molecules intercalate into the DNA helix. According to equation (12), an increase in relative viscosity denotes an intercalation-induced lengthening of the deoxyribonucleic acid base pair. While adhering to the principle of excluding the nearest neighbors, intercalation entails inserting a planar molecule into a DNA base pair without rupturing the hydrogen bonds that hold the base pairs together. This causes a diminution in the DNA helical twist and an extension of the DNA. Moreover, a molecule can be presumed to bind to deoxyribonucleic acid by intercalation between base pairs if it causes lengthening and unwinding of the deoxyribonucleic acid base pairs. In this case, the relative viscosity of DNA gradually increases, while the […]. Moreover, the affinity interactions and their slope values were observed from the relative specific viscosity (η⁄η0)^1/3 plotted straight line contrasting [Compound]/[DNA], and absolute specific viscosity of deoxyribonucleic acid in the absence or presence of samples was evaluated using equation (12) (Table 3). […] The evaluated slope findings were in the subsequent sequence: (EB) 1.215 > (1a) 0.915 > (2a) 0.630 > (HL) 0.490 (Figure S21 and Table 3). […] Due to the existence of the 2,2′-bipyridine and morpholine-fused aromatic planar systems, compounds can interact with deoxyribonucleic acid robustly via intercalation. The outcomes were excellent in accordance with the observed outcomes of absorption spectral properties.(11) η/η0^1/3=tcomplex−t0/t0/tDNA−t0/t0, where η and η0 are represented as specific viscosity of DNA in the presence complex and specific viscosity of DNA alone, and t0, tDNA, and tcomplex are represented as the average flow time of the Tris-HCl buffer solution, the average flow time of DNA alone solution, and the average flow time of DNA interacted with the samples, respectively. Error limit is ±2.5% (P < 0.025).

[2] = Nitric oxide scavenging assay; type: biochemical; details: for % Inhibition nitric oxide: 546 nm
Procedure: All samples were evaluated for their scavenging ability with the help of UV-visible spectrophotometer at different concentrations of 40, 80, 120, 160, 200, and 240 μM [6, 28]. While performing the antioxidant properties for the DPPH, hydroxyl, superoxide, and nitric oxide radical scavenging, the absorbance at 517, 230, 590, and 546 nm, respectively, was closely observed. In addition, the observed IC50 values of all samples were compared with ascorbic acid.
The diffusible nitric oxide free radical is a crucial chemical mediator, which assists in overcoming diverse chronological human diseases. The NO free radical scavenging potential for all test samples was also carried out at 546 nm. It monitored the alterations in electronic absorption intensity of the nitric oxide radical inhibition outcome concerning the sample concentrations. When the test sample concentration rises, the nitric oxide free inhibition effectiveness also increases. The measured % of nitric oxide radical scavenging capability for all samples at 240 μM was obtained in the subsequent order (ascorbic acid) 72.73 > (1a) 65.47 > (2a) 58.43 > (HL) 51.62.

[3] = system: Salmonella enteric serovar typhi; assay: Agar disc diffusion, strain B; type: cell-based; details: for diameter of the clear zone inhibition: control = 6 mm
Procedure: (§1) In-vitro antimicrobial properties were evaluated for all samples by the agar disc diffusion method towards different fungal and bacterial strains. Additionally, the reported inhibition zone values were comparatively analyzed with the standard antifungal drugs ketoconazole and amphotericin B as well as the standard antibiotic medications streptomycin and amikacin.
(§2) The current research has a curious focus on the in vitro antimicrobial properties of biological systems because these studies are crucial for developing effective antibacterial and antifungal medications. […] It can also be spelled out based on the chelation theory proposed by Overtone and Tweedy. Chelation theory points out that the partial exchanging of the positive charge of the metal center with donor moieties, and overlap of the ligand orbitals will reduce the greater degree of the metal ion's polarity, which ultimately rises the delocalization of π and d electrons over the full chelated ring system. By raising the size of the metal ion due to the retarding of polarization, chelation may also enhance the complexes' lipophilic characteristics, which further stimulate the lipid membrane permeability and break down the bacteria' enzymes responsible for cell wall formation, therefore slowing down the regular cell processes. By preventing the production of cell walls/proteins/DNA, including by obstructing folate metabolism and the cytoplasmic membrane, antimicrobial drugs frequently either fully eliminate microbes or only prevent their cell growth. Additionally, the samples' mode of action may be employed in disrupting the cell's respiration process by forming an H-bond during the morpholine-fused iminic group coordinated with the active metal center of its components, inhibiting proliferation of the cell. […] The difference in the antimicrobial efficacy of some of the compounds towards various microorganisms influences on the impermeability of the cells of the germs or the diversity of ribosomes of the microbes. The % of the inhibition of all substances is estimated from (45) (Table 9).
(§3) (A, B, C, D, and E are represented as gram negative bacteria species Escherichia coli, Salmonella enteric serovar typhi, Salmonella enteric serovar typhi, Pseudomonas aeruginosa, and Shigella flexneri, respectively. F & G are denoted as gram positive bacteria species Staphylococcus aureus and Bacillus cereus. H, I, and J are represented as fungal strains Aspergillus niger, Candida albicans, and Mucor indicus. Standard drugs for bacterial strains: Amikacin & Streptomycin Standard drugs for fungal strains: Ketoconazole and Amphotericin B. [Control (DMSO) = 6 mm].(44) Inhibition %=T–C/T×100, where T and C are represented as the diameter of microbial growth of the sample plates and the control plate (6 mm), respectively. Error limits ±2.5–5.0% (P ≤ 0.05).

Mucor indicus = assay: Agar disc diffusion, strain J; type: cell-based; parameters: (inhibition %): concentration or dose not given beside the values; details: for diameter of the clear zone inhibition: control = 6 mm
Procedure: as §1, §2, §3

Staphylococcus aureus = assay: Agar disc diffusion, strain F; type: cell-based; parameters: (inhibition %): concentration or dose not given beside the values; details: for diameter of the clear zone inhibition: control = 6 mm
Procedure: as §1, §2, §3

In the case of `[Cu+2].[O-]c1ccccc1N=Cc1ccc(N2CCOCC2)cc1.[O-]c1ccccc1N=Cc1ccc(N2CCOCC2)cc1.c1ccc(-c2ccccn2)nc1` [(1a), [Cu(L)2(bpy)]], the “Slope of (η/η0)^1/3 vs [Compound]/[DNA]” value [1] is reported as 0.915, the “Relative specific viscosity (η/η0)^1/3” value ([1]; [complex]/[DNA] = 0.2) is reported as 0.88 and the “Relative specific viscosity (η/η0)^1/3” value ([1]; [complex]/[DNA] = 0.4) is reported as 1.11. For the same compound, the “Relative specific viscosity (η/η0)^1/3” value ([1]; [complex]/[DNA] = 0.6) was 1.22, the “Relative specific viscosity (η/η0)^1/3” value ([1]; [complex]/[DNA] = 0.8) was 1.38 and the “Relative specific viscosity (η/η0)^1/3” value ([1]; [complex]/[DNA] = 1.0) was 1.66. The IC50 [2] was 200 µM, the “% Inhibition nitric oxide” value ([2]; 40 µM) was 17.07% and the “% Inhibition nitric oxide” value ([2]; 80 µM) was 24.95%. The “% Inhibition nitric oxide” value ([2]; 120 µM) was 35.06%, the “% Inhibition nitric oxide” value ([2]; 160 µM) was 42.14% and the “% Inhibition nitric oxide” value ([2]; 200 µM) was 51.35%. The “% Inhibition nitric oxide” value ([2]; 240 µM) was 65.47%, the “(inhibition %)” value [3] was 40% and the “diameter of the clear zone inhibition” value [3] was 10 mm. For the same compound, the “(inhibition %)” value (Mucor indicus) was 50%, the “diameter of the clear zone inhibition” value (Mucor indicus) was 12 mm and the “(inhibition %)” value (Staphylococcus aureus) was 50%. The “diameter of the clear zone inhibition” value (Staphylococcus aureus) was 12 mm.

In the case of `[O-]c1ccccc1N=Cc1ccc(N2CCOCC2)cc1.[O-]c1ccccc1N=Cc1ccc(N2CCOCC2)cc1.[Zn+2].c1ccc(-c2ccccn2)nc1` [(2a), [Zn(L)2(bpy)]], the “Slope of (η/η0)^1/3 vs [Compound]/[DNA]” value [1] is reported as 0.630, the “Relative specific viscosity (η/η0)^1/3” value ([1]; [complex]/[DNA] = 0.2) is reported as 0.74 and the “Relative specific viscosity (η/η0)^1/3” value ([1]; [complex]/[DNA] = 0.4) is reported as 0.81. The “Relative specific viscosity (η/η0)^1/3” value ([1]; [complex]/[DNA] = 0.6) was 0.87, the “Relative specific viscosity (η/η0)^1/3” value ([1]; [complex]/[DNA] = 0.8) was 1.03 and the “Relative specific viscosity (η/η0)^1/3” value ([1]; [complex]/[DNA] = 1.0) was 1.26. The “% Inhibition nitric oxide” value ([2]; 40 µM) was 14.37%, the “% Inhibition nitric oxide” value ([2]; 80 µM) was 21.59% and the “% Inhibition nitric oxide” value ([2]; 120 µM) was 28.87%. For the same compound, the “% Inhibition nitric oxide” value ([2]; 160 µM) was 37.69%, the “% Inhibition nitric oxide” value ([2]; 200 µM) was 44.73% and the “% Inhibition nitric oxide” value ([2]; 240 µM) was 58.43%. For the same compound, the “(inhibition %)” value [3] was 33%, the “diameter of the clear zone inhibition” value [3] was 09 mm and the “(inhibition %)” value (Mucor indicus) was 60%. The “diameter of the clear zone inhibition” value (Mucor indicus) was 15 mm, the “(inhibition %)” value (Staphylococcus aureus) was 45% and the “diameter of the clear zone inhibition” value (Staphylococcus aureus) was 11 mm.

With `Oc1ccccc1N=Cc1ccc(N2CCOCC2)cc1` [(HL), 2-(4-morpholinobenzylideneamino)phenol] the “Slope of (η/η0)^1/3 vs [Compound]/[DNA]” value [1] was 0.490, the “Relative specific viscosity (η/η0)^1/3” value ([1]; [complex]/[DNA] = 0.2) was 0.61 and the “Relative specific viscosity (η/η0)^1/3” value ([1]; [complex]/[DNA] = 0.4) was 0.67. For the same compound, the “Relative specific viscosity (η/η0)^1/3” value ([1]; [complex]/[DNA] = 0.6) was 0.75, the “Relative specific viscosity (η/η0)^1/3” value ([1]; [complex]/[DNA] = 0.8) was 0.85 and the “Relative specific viscosity (η/η0)^1/3” value ([1]; [complex]/[DNA] = 1.0) was 1.01. For the same compound, the “% Inhibition nitric oxide” value ([2]; 40 µM) was 11.42%, the “% Inhibition nitric oxide” value ([2]; 80 µM) was 18.26% and the “% Inhibition nitric oxide” value ([2]; 120 µM) was 24.28%. For the same compound, the “% Inhibition nitric oxide” value ([2]; 160 µM) was 33.21%, the “% Inhibition nitric oxide” value ([2]; 200 µM) was 40.53% and the “% Inhibition nitric oxide” value ([2]; 240 µM) was 51.62%. The “(inhibition %)” value [3] was 33%, the “diameter of the clear zone inhibition” value [3] was 09 mm and the “(inhibition %)” value (Mucor indicus) was 45%. For the same compound, the “diameter of the clear zone inhibition” value (Mucor indicus) was 11 mm, the “(inhibition %)” value (Staphylococcus aureus) was 33% and the “diameter of the clear zone inhibition” value (Staphylococcus aureus) was 09 mm.
